Data taken from patent US20120214818A1, “METHODS OF TREATING DIASTOLIC DYSFUNCTION AND RELATED CONDITIONS” (THE BOARD OF TRUSTEES OF THE UNIVERSITY OF ILLINOIS, priority 2009, published 2012).

What was measured:
[1] = test system: DOCA-salt and sham mice; assay: Echocardiography after chronic administration of ranolazine; assay type: in vivo, mouse; conditions: for ES (%): chronic ranolazine in diet (5 mg per 1-g tablet, ~1 g daily) for 7 days
Method: A special diet contained 5 mg ranolazine, 0.3 mg P450 inhibitor, and 0.25 mg red food color was pressed into a 1-g nutritionally complete grain-based tablet (Harlan, Madison, Wis.). The control diet contained 0.3 mg P450 inhibitor and 0.25 mg yellow food color pressed into the same type of 1-g tablets. DOCA-salt and sham mice consumed daily ˜1 g of the special diet from postoperative day 11 to 18.
Mice were anesthetized, maintained at 37° C., and studied by echocardiography (Vevo 770, VisualSonics Inc, Toronto, Canada). M-mode images in the parasternal long axis and the left ventricle (LV) short-axis views at the mid-papillary level were taken. Measurements were averaged from three consecutive beats during expiration. LV inflow velocities (E and A waves) were interrogated by conventional pulsed-wave Doppler from the apical four-chamber view. The mitral annulus longitudinal velocities (Sm, E′, and A′) were determined by pulsed-wave tissue Doppler from the apical four-chamber view. Interpretation was done by a two investigators blinded to the treatment groups. First, baseline images were acquired. Subsequently to determine the acute effect, the mice were injected with 30 mg/kg ranolazine by intraperitoneal route, followed by a second echocardiogram 30 min later.
In an additional set of experiments, we treated DOCA-salt mice with ranolazine for 7 days and measured diastolic function using echocardiography to evaluate the effect of chronic ranolazine therapy on myocardial function (Table 5).

[2] = test system: DOCA-salt and sham mice; assay: Noninvasive echocardiographic assessment of diastolic dysfunction, acute ranolazine; assay type: in vivo, mouse; conditions: 30 mg/kg ranolazine intraperitoneal; for E/A, early to late diastolic filling velocity / E/E′ / E′, early septal mitral annulus velocity (TDI) / E′/A′ / Sm, systolic septal mitral annulus velocity (TDI): 30 min; for EF, ejection fraction (Table 3) / FS, fractional shortening: echocardiogram 30 min later
Method: Generation of DOCA-salt mouse model: Previously, it was shown that this model leads to mild hypertension, myocardial oxidative stress, and diastolic dysfunction.^20 A gradual and mild elevation in blood pressure was induced by unilateral nephrectomy, subcutaneous implantation of a controlled release deoxycorticosterone acetate (DOCA) pellet (0.7 mg/d; Innovative Research of America, Sarasota, Fla.), and substituting drinking water with 1.05% saline. Control animals underwent a sham operation, had placebo pellet implantation, and received water without salt. Noninvasive assessment of diastolic dysfunction: Mice were anesthetized, maintained at 37° C., and studied by echocardiography (Vevo 770, VisualSonics Inc, Toronto, Canada). M-mode images in the parasternal long axis and the left ventricle (LV) short-axis views at the mid-papillary level. Measurements were averaged from three consecutive beats during expiration. LV inflow velocities (E and A waves) were interrogated by conventional pulsed-wave Doppler from the apical four-chamber view. The mitral annulus longitudinal velocities (Sm, E′, and A′) were determined by pulsed-wave tissue Doppler from the apical four-chamber view. Interpretation was done by two investigators blinded to the treatment groups. First, baseline images were acquired. Subsequently, the mice were injected with 30 mg/kg ranolazine by intraperitoneal route, followed by a second echocardiogram 30 min later. Previously, we have shown that this model leads to mild hypertension, myocardial oxidative stress, and diastolic dysfunction.^20 A gradual and mild elevation in blood pressure was induced by unilateral nephrectomy, subcutaneous implantation of a controlled release deoxycorticosterone acetate (DOCA) pellet (0.7 mg/d; Innovative Research of America, Sarasota, Fla.), and substituting drinking water with 1.05% saline. Control animals underwent a sham operation, had placebo pellet implantation, and received water without salt. Mice were anesthetized, maintained at 37° C., and studied by echocardiography (Vevo 770, VisualSonics Inc, Toronto, Canada). M-mode images in the parasternal long axis and the left ventricle (LV) short-axis views at the mid-papillary level were taken. Measurements were averaged from three consecutive beats during expiration. LV inflow velocities (E and A waves) were interrogated by conventional pulsed-wave Doppler from the apical four-chamber view. The mitral annulus longitudinal velocities (Sm, E′, and A′) were determined by pulsed-wave tissue Doppler from the apical four-chamber view. Interpretation was done by a two investigators blinded to the treatment groups. First, baseline images were acquired. Subsequently to determine the acute effect, the mice were injected with 30 mg/kg ranolazine by intraperitoneal route, followed by a second echocardiogram 30 min later.

[3] = DOCA-salt mice, chronic ranolazine in diet, 7 days
[4] = sham mice, chronic ranolazine in diet, 7 days

COc1ccccc1OCC(O)CN1CCN(CC(=O)Nc2c(C)cccc2C)CC1 (stereo not drawn) [ranolazine]
ES (%) ([1]; DOCA-salt mice): 53.3 ± 1.3%
E/A [1, 3]: 1.84 ± 0.35
E′, early septal mitral annulus velocity (TDI) [1, 3]: 1.86 ± 0.13 cm/s
Sm, systolic septal mitral annulus velocity (TDI) [1, 3]: 1.82 ± 0.05 cm/s
ES (%) ([1]; sham mice): 49.7 ± 4.9%
E/A [1, 4]: 2.42 ± 0.42
E/E′ [1, 4]: 28.0 ± 3.45
E′, early septal mitral annulus velocity (TDI) [1, 4]: 2.11 ± 0.21 cm/s
E′/A′ [1, 4]: 1.03 ± 0.07
Sm, systolic septal mitral annulus velocity (TDI) [1, 4]: 2.04 ± 0.12 cm/s
E/A, early to late diastolic filling velocity ([2]; DOCA-salt mice): 1.62 ± 0.11
E/E′ ([2]; DOCA-salt mice): 31.9 ± 2.6
E′, early septal mitral annulus velocity (TDI) ([2]; DOCA-salt mice): 2.47 ± 0.18 cm/s
E′/A′ ([2]; DOCA-salt mice): 1.31 ± 0.11
Sm, systolic septal mitral annulus velocity (TDI) ([2]; DOCA-salt mice): 2.15 ± 0.14 cm/s
EF, ejection fraction (Table 3) ([2]; DOCA-salt mice): 46.9 ± 1.6%
FS, fractional shortening ([2]; DOCA-salt mice): 46.9 ± 1.6%
E/A, early to late diastolic filling velocity ([2]; sham mice): 1.63 ± 0.07
E/E′ ([2]; sham mice): 30.2 ± 1.9
E′, early septal mitral annulus velocity (TDI) ([2]; sham mice): 2.67 ± 0.11 cm/s
E′/A′ ([2]; sham mice): 1.16 ± 0.02
Sm, systolic septal mitral annulus velocity (TDI) ([2]; sham mice): 2.31 ± 0.09 cm/s
EF, ejection fraction (Table 3) ([2]; sham mice): 52.8 ± 0.8 %
FS, fractional shortening ([2]; sham mice): 52.8 ± 0.8%
